# Measurements: publication PMC10709440, “High-throughput ligand profile characterization in novel cell lines expressing seven heterologous insect olfactory receptors for the detection of volatile plant biomarkers” (Scientific Reports, 2023)
# Read-outs that look alike come from different tables or passages of the source.
# Key:
# Drosophila OR10a = biological target: T1, Drosophila OR10a (Drosophila melanogaster, UniProt Q9VYZ1); experiment: Calcium ion fluorescence (GCaMP6) assay, OR10a stable HEK293 cell line; assay type: cell-based; details: for OR10a response (VUAA1-normalized) at 1 μM / OR10a response (VUAA1-normalized) at 10 μM / OR10a response (VUAA1-normalized) at 100 μM: OR10a cell line
# T1 construct: expressed in transfected cells
# T1 sequence (Q9VYZ1 1-406): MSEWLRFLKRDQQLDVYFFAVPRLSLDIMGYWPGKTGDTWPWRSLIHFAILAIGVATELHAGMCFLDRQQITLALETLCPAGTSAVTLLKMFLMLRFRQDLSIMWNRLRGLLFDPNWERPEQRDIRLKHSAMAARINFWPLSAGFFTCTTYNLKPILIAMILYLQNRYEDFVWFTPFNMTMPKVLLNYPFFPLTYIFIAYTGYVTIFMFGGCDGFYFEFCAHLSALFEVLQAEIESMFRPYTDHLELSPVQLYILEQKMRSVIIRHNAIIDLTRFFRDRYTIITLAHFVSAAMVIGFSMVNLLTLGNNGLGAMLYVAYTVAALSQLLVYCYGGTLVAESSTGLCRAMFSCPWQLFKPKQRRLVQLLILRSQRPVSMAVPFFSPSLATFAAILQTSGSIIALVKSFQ
# T1 sequence (Q9VNB5 1-486 partner): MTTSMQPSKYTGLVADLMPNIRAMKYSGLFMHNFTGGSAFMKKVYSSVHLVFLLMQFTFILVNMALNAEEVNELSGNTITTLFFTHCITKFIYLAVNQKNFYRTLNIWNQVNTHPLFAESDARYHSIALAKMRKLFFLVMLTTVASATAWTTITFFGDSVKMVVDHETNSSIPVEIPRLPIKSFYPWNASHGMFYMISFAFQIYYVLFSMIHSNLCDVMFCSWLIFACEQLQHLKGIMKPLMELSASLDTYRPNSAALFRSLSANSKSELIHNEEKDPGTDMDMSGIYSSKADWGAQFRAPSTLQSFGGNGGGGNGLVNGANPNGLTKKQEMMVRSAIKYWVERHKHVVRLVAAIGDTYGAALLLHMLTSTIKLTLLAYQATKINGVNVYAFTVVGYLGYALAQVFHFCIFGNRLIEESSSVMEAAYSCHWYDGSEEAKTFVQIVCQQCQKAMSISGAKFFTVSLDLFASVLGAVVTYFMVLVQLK
# Method in brief: (§1)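 HEK293 lines stably expressing each Drosophila OR with GCaMP6, doxycycline-induced (1 μg/mL) 48 or 72 h. Fluorescence recorded 5 s baseline then 30 s after VOC injection at pH 7.3; ΔF=(FMAX−F0)/F0, normalized to 50 µM VUAA1 response per line, triplicate wells averaged; concentration series 0.01–100 μM.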
# Drosophila OR49b = biological target: T2, Drosophila OR49b (Drosophila melanogaster, UniProt Q9V6H2); experiment: cell-based; details: for activation at 1 µM / activation at 10 µM / activation at 100 µM: HEK293, read-out: OR49b response (VUAA1-normalized response); for Average response / OR49b response (VUAA1-normalized) at 1 μM / OR49b response (VUAA1-normalized) at 10 μM / OR49b response (VUAA1-normalized) at 100 μM: OR49b cell line; for Average response: mean of biological replicates
# T2 construct: expressed in transfected cells
# T2 sequence (Q9V6H2 1-375): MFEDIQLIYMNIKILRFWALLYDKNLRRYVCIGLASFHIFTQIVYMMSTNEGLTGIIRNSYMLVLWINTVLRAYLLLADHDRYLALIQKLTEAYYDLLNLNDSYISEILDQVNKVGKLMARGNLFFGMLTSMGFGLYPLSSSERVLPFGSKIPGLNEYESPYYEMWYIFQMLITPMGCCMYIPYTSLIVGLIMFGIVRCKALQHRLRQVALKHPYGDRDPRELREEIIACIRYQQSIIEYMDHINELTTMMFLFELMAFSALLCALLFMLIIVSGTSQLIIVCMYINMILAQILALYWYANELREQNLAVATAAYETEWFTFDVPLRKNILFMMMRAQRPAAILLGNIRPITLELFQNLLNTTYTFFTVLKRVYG
# T2 sequence (Q9VNB5 1-486 partner): T1 sequence (Q9VNB5 1-486 partner)
# Method in brief: as §1
# [1] = HEK293, 1 μM VOC, 50 μM VUAA1 = 1, responses not exceeding 0.05 considered 0, read-out: OR10a Average response (VUAA1-normalized)
# [2] = HEK293, 10 μM VOC, 50 μM VUAA1 = 1, responses not exceeding 0.05 considered 0, read-out: OR10a Average response (VUAA1-normalized)
# [3] = HEK293, 100 μM VOC, 50 μM VUAA1 = 1, responses not exceeding 0.05 considered 0, read-out: OR10a Average response (VUAA1-normalized)
# [4] = HEK293, read-out: OR10a response (VUAA1-normalized response), VOC concentration 1 μM
# [5] = HEK293, read-out: OR10a response (VUAA1-normalized response), VOC concentration 10 μM
# [6] = HEK293, read-out: OR10a response (VUAA1-normalized response), VOC concentration 100 μM
# [7] = HEK293, read-out: OR10a Average response (VUAA1-normalized), 1 μM VOC, 50 μM VUAA1 = 1, responses not exceeding 0.05 considered 0
# [8] = HEK293, read-out: OR10a Average response (VUAA1-normalized), 10 μM VOC, 50 μM VUAA1 = 1, responses not exceeding 0.05 considered 0
# [9] = HEK293, read-out: OR10a Average response (VUAA1-normalized), 100 μM VOC, 50 μM VUAA1 = 1, responses not exceeding 0.05 considered 0
# [10] = ligand concentration 1 (unit not given), threshold 0.05, below shown as 0
# [11] = ligand concentration 10 (unit not given), threshold 0.05, below shown as 0
# [12] = ligand concentration 100 (unit not given), threshold 0.05, below shown as 0
# [13] = 1 μM VOC, 50 μM VUAA1 = 1, responses not exceeding 0.05 considered 0
# [14] = 10 μM VOC, 50 μM VUAA1 = 1, responses not exceeding 0.05 considered 0
# [15] = 100 μM VOC, 50 μM VUAA1 = 1, responses not exceeding 0.05 considered 0
SMILES,activation at 1 µM (Drosophila OR10a; [4]) [%],activation at 10 µM (Drosophila OR10a; [5]) [%],Average response (Drosophila OR49b; odorant cc. 1 µM),Average response (Drosophila OR49b; odorant cc. 10 µM),Average response (Drosophila OR49b; odorant cc. 100 µM),DF norm AVERAGE OR10a (Drosophila OR10a; [10]),DF norm AVERAGE OR10a (Drosophila OR10a; [11]),DF norm AVERAGE OR10a (Drosophila OR10a; [12]),DF norm AVERAGE OR49b (Drosophila OR49b; [10]),DF norm AVERAGE OR49b (Drosophila OR49b; [11]),DF norm AVERAGE OR49b (Drosophila OR49b; [12]),OR10a response (VUAA1-normalized response) (Drosophila OR10a; VOC concentration 1 μM),OR10a response (VUAA1-normalized response) (Drosophila OR10a; VOC concentration 10 μM),OR10a response (VUAA1-normalized response) (Drosophila OR10a; VOC concentration 100 μM),OR49b response (VUAA1-normalized response) (Drosophila OR49b; VOC concentration 1 μM),OR49b response (VUAA1-normalized response) (Drosophila OR49b; VOC concentration 10 μM),OR49b response (VUAA1-normalized response) (Drosophila OR49b; VOC concentration 100 μM),OR10a Average response (VUAA1-normalized) (Drosophila OR10a; [13]),OR10a Average response (VUAA1-normalized) (Drosophila OR10a; [14]),OR10a Average response (VUAA1-normalized) (Drosophila OR10a; [15]),also measured
C=CC(O)CCCCC (centres unmarked) [1-octen-3-ol],0,0,0.00,0.0174,0.0145,–,–,–,–,–,–,–,–,–,–,–,–,–,–,–,DF norm AVERAGE OR10a (Drosophila OR10a): 0; activation at 1 µM (Drosophila OR10a; [1]): 0%; activation at 10 µM (Drosophila OR10a; [2]): 2.34%; activation at 100 µM (Drosophila OR10a; [3]): 4.52%; activation at 100 µM (Drosophila OR10a; [6]): 0%; DF norm AVERAGE OR49b (Drosophila OR49b): 0; activation at 1 µM (Drosophila OR49b; VOC concentration 1 μM): 0%; activation at 10 µM (Drosophila OR49b; VOC concentration 10 μM): 0%; activation at 100 µM (Drosophila OR49b; VOC concentration 100 μM): 0%
CCCCCC(C)O (centres unmarked) [2-heptanol],0,7.54,0.00,0.00,0.0651,–,–,–,–,–,–,–,–,–,–,–,–,–,–,–,activation at 1 µM (Drosophila OR10a; [1]): 3.76%; activation at 10 µM (Drosophila OR10a; [2]): 7.54%; activation at 100 µM (Drosophila OR10a; [3]): 0%; activation at 100 µM (Drosophila OR10a; [6]): 0%; activation at 1 µM (Drosophila OR49b; VOC concentration 1 μM): 0%; activation at 10 µM (Drosophila OR49b; VOC concentration 10 μM): 0%; activation at 100 µM (Drosophila OR49b; VOC concentration 100 μM): 6.51%
Cc1ccc(C(C)C)cc1 [p-cymene],–,–,0.00,0.00,0.00,0,0,0,0,0,0,–,–,–,–,–,–,–,–,–,activation at 1 µM (Drosophila OR10a; [7]): 0%; activation at 10 µM (Drosophila OR10a; [8]): 0%; activation at 100 µM (Drosophila OR10a; [9]): 0%; OR10a response (VUAA1-normalized) at 1 μM (Drosophila OR10a; VOC concentration 1 μM): 0.00; OR10a response (VUAA1-normalized) at 10 μM (Drosophila OR10a; VOC concentration 10 μM): 0.00; OR10a response (VUAA1-normalized) at 100 μM (Drosophila OR10a; VOC concentration 100 μM): 0.00; OR49b response (VUAA1-normalized) at 1 μM (Drosophila OR49b; VOC concentration 1 μM): 0.00; OR49b response (VUAA1-normalized) at 10 μM (Drosophila OR49b; VOC concentration 10 μM): 0.00; OR49b response (VUAA1-normalized) at 100 μM (Drosophila OR49b; VOC concentration 100 μM): 0.00
CC/C=C\CCO [E-3-hexenol],–,–,–,–,–,–,–,–,–,–,–,0.00,0.00,0.074,0.00,0.00,0.08,–,–,–,–
CC/C=C\CCO [Z-3-hexenol],–,–,–,–,–,–,–,–,–,–,–,–,–,–,–,–,–,–,–,–,OR10a response (VUAA1-normalized) at 1 μM (Drosophila OR10a; VOC concentration 1 μM): 0.17; OR10a response (VUAA1-normalized) at 10 μM (Drosophila OR10a; VOC concentration 10 μM): 0.19; OR10a response (VUAA1-normalized) at 100 μM (Drosophila OR10a; VOC concentration 100 μM): 0.10; OR49b response (VUAA1-normalized) at 1 μM (Drosophila OR49b; VOC concentration 1 μM): 0.00; OR49b response (VUAA1-normalized) at 10 μM (Drosophila OR49b; VOC concentration 10 μM): 0.00; OR49b response (VUAA1-normalized) at 100 μM (Drosophila OR49b; VOC concentration 100 μM): 0.00
C=C(C)[C@H]1CC=C(C)CC1 [limonene],–,–,0.00,0.00,0.028,0,0,0.05729,0,0,0,0.00,0.00,0.06,0.00,0.00,0.00,0.00,0.00,0.06,–
"CC(C)=CCC/C(C)=C/CC/C(C)=C/CO [e,e-farnesol]",–,–,0.00,0.06,0.00,0,0.06329,0,0,0.06141,0,0.00,0.0633,0.00,0.00,0.06,0.00,0.034,0.0633,0.0174,–
"C=C(C)C1CCC2(C)OC2C1 (single isomer, unassigned; (+)) [(+)-limonene oxide]",–,–,0.00,0.00,0.00,–,–,–,–,–,–,0.00,0.00,0.00,0.00,0.00,0.00,0.00,0.02,0.00,DF norm AVERAGE OR10a (Drosophila OR10a): 0; DF norm AVERAGE OR49b (Drosophila OR49b): 0
CC1=CCC2CC1C2(C)C (stereo not drawn) [alpha-pinene],0,0,0.0281,0.00,0.00,0,0,0.07438,0,0,0,–,–,–,–,–,–,–,–,–,activation at 1 µM (Drosophila OR10a; [7]): 5%; activation at 10 µM (Drosophila OR10a; [8]): 0%; activation at 100 µM (Drosophila OR10a; [9]): 7.44%; activation at 100 µM (Drosophila OR10a; [6]): 7.44%; activation at 1 µM (Drosophila OR49b; VOC concentration 1 μM): 0%; activation at 10 µM (Drosophila OR49b; VOC concentration 10 μM): 0%; activation at 100 µM (Drosophila OR49b; VOC concentration 100 μM): 0%
C=C1[C@H]2CC[C@@H]3[C@H]2C(C)(C)CCC[C@]13C [(+)-longifolene],–,–,0.08,0.00,0.00,–,–,–,–,–,–,0.08,0.0537,0.00,0.08,0.00,0.00,0.08,0.0537,0.028,"DF norm AVERAGE OR10a (Drosophila OR10a; concentration 10, normalized fluorescence change, values below 0.05 threshold given as 0): 0.05372"
